From patent US7388014B2, “Quinazoline derivatives and therapeutic use thereof” (Rexahn Pharmaceuticals, Inc., priority 2004, dated 2008)

Tests used:
Format in all cases: cell-based, Human
[1] = test system: A549; test: Cell growth inhibition assay (SRB), A549; conditions: A549 (lung), 96 hours
Text: (§1) Cancer cells used in this study to determine the effect of quinazoline compounds were obtained from the following sources: Human OVCAR-3 (ovary), MCF-7 (breast, hormone-dependent), Hs 578T (breast), MDA-MB-231 (breast), HeLa (cervix), PC3 (prostate), HepG2 (liver), A549 (lung), Caki-1 (kidney), HT-29 (colon), HCT116 (colon) and PANC-1 (pancreas) from the American Type Culture Collection (ATCC) (Manassas, Va.); U251 (brain) from Riken (Japan); MKN-45 (stomach) from DSMZ (Germany); UMRC2 (kidney) and Lox IMVI (melanoma) from the United States National Cancer Institute (Bethesda, Md.). All cell lines except Hs 578T, MDA-MB-231, HCT116, UMRC2, Caki-1 and PANC-1 were grown in RPMI1640 medium (Invitrogen, Carlsbad, Calif.) supplemented with 10% fetal bovine serum (“FBS”), 1 mM sodium pyruvate, 10 mM HEPES and 100 U/ml penicillin and 100 μg/ml streptomycin (“P/S”). Hs 578T, MDA-MB-231, HCT116, UMRC2, Caki-1 and PANC-1 cells were maintained in Dulbecco's modified Eagle's medium (“DMEM”, Invitrogen) supplemented with 10% FBS, P/S, 10 mM HEPES and 2 mM L-glutamine. All cells were incubated at 37° C. under humidified 5% CO2.
(§2) The growth inhibition of the substituted quinazoline derivative compounds against a variety of human tumor cells was evaluated. The relative importance of particular substituent groups on the compounds was also studied. The substituted quinazoline derivative compounds, prepared as described above, were tested, along with DMSO as a control.
(§3) The growth inhibition assay of various compounds against 15 human tumor cell lines was performed using the Sulforhodamnine B (“SRB”) method (Skehan et al., J. National Cancer Institute, 82: 1107-1112 (1990)). Briefly, exponentially growing tumor cells were seeded into a 96-well plate at a density of 2-3×10^3 cells/well and treated with quinazoline compounds the next day. Triplicate wells were used for each treatment. The cells were. incubated with the various compounds for 96 hours at 37° C. in a humidified 5% CO2 atmosphere. After 96-hour incubation, cells were fixed with 10% trichloroacetic acid (“TCA”), incubated for 1 hour at 4° C., and washed 3 times with tap water. Subsequently cells were stained with 0.4% sulforhodamine B in 1% acetic acid for 30 minutes, washed 4 times with 1% acetic acid, and air-dried again. After 5 minutes agitation in 10 mM Tris solution, the absorbance of each well was measured at 530 nm using Benchmark Plus Microplate reader (Bio-Rad Laboratories, Hercules, Calif.).
(§4) To translate the OD530 values into the number of live cells in each well, the OD530 values were compared to those on standard OD530—versus—cell number curves generated for each cell line. The percent survival was calculated using the formula: % Survival=live cell number [test]/live cell number [control]×100
(§5) The IC50 values were calculated by non-linear regression analysis.

[2] = test system: HepG2; test: Cell growth inhibition assay (SRB), HepG2; conditions: HepG2 (liver), 96 hours, read-out: Inhibition of cell growth (IC50, μM) HepG 2
Text: as §1, §2, §3, §4, §5

[3] = test system: MKN-45; test: Cell growth inhibition assay (SRB), MKN-45; conditions: MKN-45 (stomach), 96 hours
Text: as §1, §2, §3, §4, §5

[4] = test system: PANC-1; test: Cell growth inhibition assay (SRB), PANC-1; conditions: PANC-1 (pancreas), 96 hours
Text: as §1, §2, §3, §4, §5

[5] = test system: HT-29; test: Cell growth inhibition assay (SRB), HT-29; conditions: HT-29 (colon), 96 hours
Text: as §1, §2, §3, §4, §5

[6] = test system: PC3; test: Cell growth inhibition assay (SRB), PC3; conditions: PC3 (prostate), 96 hours
Text: as §1, §2, §3, §4, §5

[7] = test system: U251; test: Cell growth inhibition assay (SRB), U251; conditions: U251 (brain), 96 hours
Text: as §1, §2, §3, §4, §5

[8] = test system: HeLa; test: Cell growth inhibition assay (SRB), HeLa; conditions: HeLa (cervix), 96 hours
Text: as §1, §2, §3, §4, §5

[9] = test system: Lox IMVI; test: Cell growth inhibition assay (SRB), Lox IMVI; conditions: Lox IMVI (melanoma), 96 hours
Text: as §1, §2, §3, §4, §5

[10] = test system: OVCAR-3; test: Cell growth inhibition assay (SRB), OVCAR-3; conditions: OVCAR-3 (ovary), 96 hours
Text: as §1, §2, §3, §4, §5

[11] = test system: MCF-7; test: Cell growth inhibition assay (SRB), MCF-7; conditions: MCF-7 (breast, hormone-dependent), 96 hours
Text: as §1, §2, §3, §4, §5

[12] = test system: MDA-MB-231; test: Cell growth inhibition assay (SRB), MDA-MB-231; conditions: MDA-MB-231 (breast), 96 hours
Text: as §1, §2, §3, §4, §5

[13] = test system: Hs 578T; test: Cell growth inhibition assay (SRB), Hs 578T; conditions: Hs 578T (breast), 96 hours
Text: as §1, §2, §3, §4, §5

[14] = test system: UMRC2; test: Cell growth inhibition assay (SRB), UMRC2; conditions: UMRC2 (kidney), 96 hours
Text: as §1, §2, §3, §4, §5

[15] = test system: Caki-1; test: Cell growth inhibition assay (SRB), Caki-1; conditions: Caki-1 (kidney), 96 hours
Text: as §1, §2, §3, §4, §5

Structure (SMILES) | IC50 [1] | IC50 [2] | IC50 [3] | IC50 [4] | IC50 [5] | IC50 [6] | IC50 [7] | IC50 [8] | IC50 [10] | IC50 [11] | IC50 [12] | IC50 [9] | IC50 [13] | IC50 [14] | IC50 [15]
Fc1cc(Cl)ccc1Nc1ncnc2ccc(Br)cc12 [RX-1279] | 2.86 µM | 0.75 µM | > 3 µM | > 3 µM | > 3 µM | > 3 µM | 2.97 µM | > 3 µM | > 3 µM | > 3 µM | > 3 µM | > 3 µM | > 3 µM | > 3 µM | 2.15 µM
FC(F)(F)c1ccccc1CNc1ncnc2ccc(I)cc12 [RX-1682] | > 3 µM | 1.51 µM | > 3 µM | > 3 µM | > 3 µM | > 3 µM | 0.53 µM | > 3 µM | > 3 µM | 0.55 µM | > 3 µM | > 3 µM | > 3 µM | > 3 µM | > 3 µM
Cc1cc(C)c(Nc2ncnc3ccc([N+](=O)[O-])cc23)c(C)c1 [RX-1122] | 2 µM | 2.39 µM | 1.33 µM | 1.42 µM | 2.55 µM | 0.88 µM | 0.57 µM | 1.3 µM | 1.01 µM | 0.63 µM | 0.73 µM | 1.1 µM | 1.35 µM | 1.09 µM | 1.11 µM
Cn1cnc2cc3ncnc(NCCc4ccccc4F)c3cc21 [RX-1857] | > 3 µM | > 3 µM | > 3 µM | > 3 µM | > 3 µM | > 3 µM | > 3 µM | > 3 µM | > 3 µM | > 3 µM | > 3 µM | > 3 µM | > 3 µM | > 3 µM | 1.57 µM
c1ccc(CCCCNc2ncnc3cc4[nH]cnc4cc23)cc1 [RX-1842] | > 3 µM | 2.47 µM | > 3 µM | > 3 µM | > 3 µM | > 3 µM | 1.93 µM | > 3 µM | > 3 µM | 1.34 µM | 0.84 µM | 1.15 µM | 1.05 µM | 1.98 µM | > 3 µM
Ic1ccc2ncnc(NC3CCCCC3)c2c1 [RX-1659] | > 3 µM | 1 µM | > 3 µM | > 3 µM | > 3 µM | > 3 µM | 0.51 µM | > 3 µM | > 3 µM | 0.36 µM | > 3 µM | 1.95 µM | > 3 µM | > 3 µM | 1.71 µM

Second part, led by results:

IC50 [1] | IC50 [2] | IC50 [3] | IC50 [4] | IC50 [5] | IC50 [6] | IC50 [7] | IC50 [8] | IC50 [10] | IC50 [11] | IC50 [12] | Structure (SMILES) | IC50 [9] | IC50 [13] | IC50 [14] | IC50 [15]
> 3 µM | 0.85 µM | > 3 µM | > 3 µM | 1.7 µM | > 3 µM | 0.9 µM | > 3 µM | > 3 µM | 1.17 µM | > 3 µM | Cn1cnc2cc3ncnc(NCCc4cccc(F)c4)c3cc21 [RX-1894] | > 3 µM | > 3 µM | > 3 µM | 2.33 µM
2.1 µM | 1.18 µM | > 3 µM | 0.34 µM | 2.07 µM | > 3 µM | 1.95 µM | > 3 µM | 2.6 µM | 1.53 µM | 0.46 µM | Fc1cccc(CCNc2ncnc3ccccc23)c1 [RX-1195] | 2.16 µM | 0.44 µM | 0.41 µM | > 3 µM
1.92 µM | 0.9 µM | > 3 µM | > 3 µM | > 3 µM | > 3 µM | 0.42 µM | > 3 µM | > 3 µM | 0.55 µM | 0.34 µM | Brc1ccc2ncnc(NCCCCc3ccccc3)c2c1 [RX-1251] | 0.19 µM | 0.43 µM | 0.47 µM | 1.96 µM
2.4 µM | 0.9 µM | > 3 µM | > 3 µM | > 3 µM | > 3 µM | 0.56 µM | > 3 µM | > 3 µM | 0.58 µM | 0.88 µM | Fc1cccc(CCNc2ncnc3ccc(Br)cc23)c1 [RX-1242] | 0.73 µM | 1.03 µM | 1.29 µM | 2.39 µM
> 3 µM | 1.51 µM | > 3 µM | > 3 µM | > 3 µM | > 3 µM | 0.62 µM | > 3 µM | > 3 µM | 0.43 µM | 1.06 µM | Ic1ccc2ncnc(NCCCCc3ccccc3)c2c1 [RX-1670] | 0.88 µM | 1.35 µM | 1.53 µM | > 3 µM
